pIC50: −log10 of the molar value.
Key:
HCT-15 = experiment: NCI in vitro cell line screen (SRB), Colon Cancer HCT-15; assay type: cell-based
Experimental: (§1) For exemplary purposes, an embodiment of the present invention was tested for activity with respect to certain cancer cell lines. The following Tables show results from in vitro 60-cell line antitumor testing from the US National Cancer Institute Developmental Therapeutics Program (NCI-DTP) on compound 2. The testing was in connection with the NCI's In Vitro Cell Line Screening Project (IVCLSP). Detailed information regarding the experiments and their interpretation is available from the NCI.

MDA-MB-231/ATCC = experiment: NCI in vitro cell line screen (SRB), Breast Cancer MDA-MB-231/ATCC; assay type: cell-based
Experimental: as §1

A498 = experiment: NCI in vitro cell line screen (SRB), Renal Cancer A498; assay type: cell-based
Experimental: as §1

NCI-H322M = experiment: NCI in vitro cell line screen (SRB), Non-Small Cell Lung Cancer NCI-H322M; assay type: cell-based
Experimental: as §1

HOP-62 = experiment: NCI in vitro cell line screen (SRB), Non-Small Cell Lung Cancer HOP-62; assay type: cell-based
Experimental: as §1

NCI/ADR-RES = experiment: NCI in vitro cell line screen (SRB), Breast Cancer NCI/ADR-RES; assay type: cell-based
Experimental: as §1
Antitumor agents with tumor-specific selectivity are highly desired, in order to reduce the incidence of non-selective cytotoxicity to patients. […] This is of special importance since this NCI/ADR-RES cell line is resistant to many currently used antitumor agents such as adriamycin, taxol, and others.

SF-539 = experiment: NCI in vitro cell line screen (SRB), CNS Cancer SF-539; assay type: cell-based
Experimental: as §1

HCT-116 = experiment: NCI in vitro cell line screen (SRB), Colon Cancer HCT-116; assay type: cell-based
Experimental: as §1

HIF-1 = experiment: pTK-HRE3-luc reporter assay, hypoxia-induced HIF-1 activation in T47D cells; conditions: Homo sapiens, T47D, read-out: IC50, inhibition of hypoxic activation of HIF-1
HIF-1β protein = experiment: Western blot, HIF-1β protein in T47D nuclear extract; assay type: cell-based, human
Experimental: Due to the low abundance of HIF-1α protein in whole cell extract, nuclear extract is prepared and the level of HIF-1α protein in the nuclear extract determined by Western blot. Briefly, exponentially grown T47D cells are exposed to compound 2 for 30 minutes. […] Nuclear extracts are prepared from control and treated cells, separated on a SDS/PAGE gel, the separated proteins transferred to a nitrocellulose membrane, incubated with the primary antibodies (anti-HIF-1α, and anti-HIF-1β monoclonal antibodies, Novus Biologicals), secondary antibody biotinylated anti-mouse immunoglobulin G and Vectastain ABC reagent (Vector Laboratories), and developed using ECL reagents (Amersham Biosciences). […] No change in HIF-1β protein level is observed across the treatments. It is reasonable to conclude that the selectivity of compound 2 towards hypoxia-activated HIF-1 is caused by selective blockade of the hypoxic induction of HIF-1 protein.

[1] = Homo sapiens, read-out: LC50 (the source's name)
[2] = NCI/ADR-RES, Log10 Concentration −4.0 Molar
[3] = NCI/ADR-RES, Log10 Concentration −5.0 Molar
[4] = NCI/ADR-RES, Log10 Concentration −6.0 Molar
[5] = NCI/ADR-RES, Log10 Concentration −7.0 Molar
[6] = NCI/ADR-RES, Log10 Concentration −8.0 Molar

COc1ccc([C@@H](O)[C@@H](C)Oc2ccc([C@H]3O[C@H](c4ccc(O[C@H](C)[C@H](O)c5ccc6c(c5)OCO6)c(OC)c4)[C@H](C)[C@H]3C)cc2OC)cc1OC [Compound 2, manassantin B]
TGI (HCT-15): >1.00E−4 Molar
GI50 (HCT-15; Homo sapiens): 4.91 µM
CC50 (HCT-15; [1]): > 100 µM
Mean Optical Densities (HCT-15; Log10 Concentration −4.0 Molar): 0.319
Percent Growth (HCT-15; Log10 Concentration −4.0 Molar): 26%
Mean Optical Densities (HCT-15; Log10 Concentration −5.0 Molar): 0.400
Percent Growth (HCT-15; Log10 Concentration −5.0 Molar): 38%
Mean Optical Densities (HCT-15; Log10 Concentration −6.0 Molar): 0.660
Percent Growth (HCT-15; Log10 Concentration −6.0 Molar): 77%
Mean Optical Densities (HCT-15; Log10 Concentration −7.0 Molar): 0.691
Percent Growth (HCT-15; Log10 Concentration −7.0 Molar): 82%
Mean Optical Densities (HCT-15; Log10 Concentration −8.0 Molar): 0.683
Percent Growth (HCT-15; Log10 Concentration −8.0 Molar): 80%
TGI (MDA-MB-231/ATCC): 4.74E−5 Molar
GI50 (MDA-MB-231/ATCC; Homo sapiens): 968 nM
CC50 (MDA-MB-231/ATCC; [1]): > 100 µM
Mean Optical Densities (MDA-MB-231/ATCC; Log10 Concentration −4.0 Molar): 0.384
Percent Growth (MDA-MB-231/ATCC; Log10 Concentration −4.0 Molar): −7%
Mean Optical Densities (MDA-MB-231/ATCC; Log10 Concentration −5.0 Molar): 0.457
Percent Growth (MDA-MB-231/ATCC; Log10 Concentration −5.0 Molar): 14%
Mean Optical Densities (MDA-MB-231/ATCC; Log10 Concentration −6.0 Molar): 0.569
Percent Growth (MDA-MB-231/ATCC; Log10 Concentration −6.0 Molar): 50%
Mean Optical Densities (MDA-MB-231/ATCC; Log10 Concentration −7.0 Molar): 0.630
Percent Growth (MDA-MB-231/ATCC; Log10 Concentration −7.0 Molar): 69%
Mean Optical Densities (MDA-MB-231/ATCC; Log10 Concentration −8.0 Molar): 0.640
Percent Growth (MDA-MB-231/ATCC; Log10 Concentration −8.0 Molar): 72%
TGI (A498): >1.00E−4 Molar
GI50 (A498; Homo sapiens): 13.2 µM
CC50 (A498; [1]): > 100 µM
Mean Optical Densities (A498; Log10 Concentration −4.0 Molar): 1.223
Percent Growth (A498; Log10 Concentration −4.0 Molar): 14%
Mean Optical Densities (A498; Log10 Concentration −5.0 Molar): 1.343
Percent Growth (A498; Log10 Concentration −5.0 Molar): 55%
Mean Optical Densities (A498; Log10 Concentration −6.0 Molar): 1.419
Percent Growth (A498; Log10 Concentration −6.0 Molar): 80%
Mean Optical Densities (A498; Log10 Concentration −7.0 Molar): 1.433
Percent Growth (A498; Log10 Concentration −7.0 Molar): 85%
Mean Optical Densities (A498; Log10 Concentration −8.0 Molar): 1.414
Percent Growth (A498; Log10 Concentration −8.0 Molar): 79%
TGI (NCI-H322M): >1.00E−4 Molar
GI50 (NCI-H322M; Homo sapiens): 19.7 µM
LC50 (NCI-H322M; Homo sapiens): > 100 µM
Mean Optical Densities (NCI-H322M; Log10 Concentration −4.0 Molar): 1.146
Percent Growth (NCI-H322M; Log10 Concentration −4.0 Molar): 28%
Mean Optical Densities (NCI-H322M; Log10 Concentration −5.0 Molar): 1.266
Percent Growth (NCI-H322M; Log10 Concentration −5.0 Molar): 59%
Mean Optical Densities (NCI-H322M; Log10 Concentration −6.0 Molar): 1.380
Percent Growth (NCI-H322M; Log10 Concentration −6.0 Molar): 89%
Mean Optical Densities (NCI-H322M; Log10 Concentration −7.0 Molar): 1.370
Percent Growth (NCI-H322M; Log10 Concentration −7.0 Molar): 86%
Mean Optical Densities (NCI-H322M; Log10 Concentration −8.0 Molar): 1.315
Percent Growth (NCI-H322M; Log10 Concentration −8.0 Molar): 72%
TGI (HOP-62): >1.00E−4 Molar
GI50 (HOP-62; Homo sapiens): 57.3 µM
CC50 (HOP-62; [1]): > 100 µM
Mean Optical Densities (HOP-62; Log10 Concentration −4.0 Molar): 0.739
Percent Growth (HOP-62; Log10 Concentration −4.0 Molar): 44%
Mean Optical Densities (HOP-62; Log10 Concentration −5.0 Molar): 0.893
Percent Growth (HOP-62; Log10 Concentration −5.0 Molar): 68%
Mean Optical Densities (HOP-62; Log10 Concentration −6.0 Molar): 0.971
Percent Growth (HOP-62; Log10 Concentration −6.0 Molar): 81%
Mean Optical Densities (HOP-62; Log10 Concentration −7.0 Molar): 0.982
Percent Growth (HOP-62; Log10 Concentration −7.0 Molar): 82%
Mean Optical Densities (HOP-62; Log10 Concentration −8.0 Molar): 0.924
Percent Growth (HOP-62; Log10 Concentration −8.0 Molar): 73%
inhibition of the NCI/ADR-RES breast tumor cell line (NCI/ADR-RES): potently inhibits
GI50 (NCI/ADR-RES; Homo sapiens, NCI/ADR-RES): 107 nM
CC50 (NCI/ADR-RES; Homo sapiens, NCI/ADR-RES, read-out: LC50 (the source's name)): > 100 µM
TGI (NCI/ADR-RES; NCI/ADR-RES): >1.00E−4 Molar
Mean Optical Densities (NCI/ADR-RES; [2]): 0.982
Percent Growth (NCI/ADR-RES; [2]): 5%
Mean Optical Densities (NCI/ADR-RES; [3]): 1.133
Percent Growth (NCI/ADR-RES; [3]): 20%
Mean Optical Densities (NCI/ADR-RES; [4]): 1.389
Percent Growth (NCI/ADR-RES; [4]): 45%
Mean Optical Densities (NCI/ADR-RES; [5]): 1.445
Percent Growth (NCI/ADR-RES; [5]): 50%
Mean Optical Densities (NCI/ADR-RES; [6]): 1.518
Percent Growth (NCI/ADR-RES; [6]): 57%
TGI (SF-539): >1.00E−4 Molar
GI50 (SF-539; Homo sapiens): 6.28 µM
CC50 (SF-539; [1]): > 100 µM
Mean Optical Densities (SF-539; Log10 Concentration −4.0 Molar): 0.535
Percent Growth (SF-539; Log10 Concentration −4.0 Molar): 21%
Mean Optical Densities (SF-539; Log10 Concentration −5.0 Molar): 0.629
Percent Growth (SF-539; Log10 Concentration −5.0 Molar): 41%
Mean Optical Densities (SF-539; Log10 Concentration −6.0 Molar): 0.848
Percent Growth (SF-539; Log10 Concentration −6.0 Molar): 87%
Mean Optical Densities (SF-539; Log10 Concentration −7.0 Molar): 0.914
Percent Growth (SF-539; Log10 Concentration −7.0 Molar): 101%
Mean Optical Densities (SF-539; Log10 Concentration −8.0 Molar): 0.880
Percent Growth (SF-539; Log10 Concentration −8.0 Molar): 94%
TGI (HCT-116): >1.00E−4 Molar
GI50 (HCT-116; Homo sapiens): 2250 nM
CC50 (HCT-116; [1]): > 100 µM
Mean Optical Densities (HCT-116; Log10 Concentration −4.0 Molar): 0.329
Percent Growth (HCT-116; Log10 Concentration −4.0 Molar): 15%
Mean Optical Densities (HCT-116; Log10 Concentration −5.0 Molar): 0.498
Percent Growth (HCT-116; Log10 Concentration −5.0 Molar): 32%
Mean Optical Densities (HCT-116; Log10 Concentration −6.0 Molar): 0.770
Percent Growth (HCT-116; Log10 Concentration −6.0 Molar): 60%
Mean Optical Densities (HCT-116; Log10 Concentration −7.0 Molar): 0.867
Percent Growth (HCT-116; Log10 Concentration −7.0 Molar): 70%
Mean Optical Densities (HCT-116; Log10 Concentration −8.0 Molar): 0.978
Percent Growth (HCT-116; Log10 Concentration −8.0 Molar): 81%
pIC50 (HIF-1): 8.52
HIF-1β protein level (HIF-1β protein): No change

— US20090137664A1, “SAURURUS CERNUUS COMPOUNDS THAT INHIBIT CELLULAR RESPONSES TO HYPOXIA” (priority 2003, published 2009)
